This is an account of results in PubChem BioAssay AID624124 (The Scripps Research Institute Molecular Screening Center, 2012).

For the assay, the target named is Tyrosine-protein kinase ABL1 (Homo sapiens) + Ras and Rab interactor 1 (Homo sapiens) (UniProt P00519+Q13671). The assay can be described thus: Rin1/ABL1 binding disruption, potency – biochemical, TR-FRET, round 1, late-stage follow-up (AID 624124). The settings on record: TR-FRET Rin1-Abl binding assay. Background: Time-resolved FRET reads energy transfer from a long-lived donor to a nearby acceptor.
Tyrosine-protein kinase ABL1 (Homo sapiens) + Ras and Rab interactor 1 (Homo sapiens), sequence (P00519 whole entry, looked up): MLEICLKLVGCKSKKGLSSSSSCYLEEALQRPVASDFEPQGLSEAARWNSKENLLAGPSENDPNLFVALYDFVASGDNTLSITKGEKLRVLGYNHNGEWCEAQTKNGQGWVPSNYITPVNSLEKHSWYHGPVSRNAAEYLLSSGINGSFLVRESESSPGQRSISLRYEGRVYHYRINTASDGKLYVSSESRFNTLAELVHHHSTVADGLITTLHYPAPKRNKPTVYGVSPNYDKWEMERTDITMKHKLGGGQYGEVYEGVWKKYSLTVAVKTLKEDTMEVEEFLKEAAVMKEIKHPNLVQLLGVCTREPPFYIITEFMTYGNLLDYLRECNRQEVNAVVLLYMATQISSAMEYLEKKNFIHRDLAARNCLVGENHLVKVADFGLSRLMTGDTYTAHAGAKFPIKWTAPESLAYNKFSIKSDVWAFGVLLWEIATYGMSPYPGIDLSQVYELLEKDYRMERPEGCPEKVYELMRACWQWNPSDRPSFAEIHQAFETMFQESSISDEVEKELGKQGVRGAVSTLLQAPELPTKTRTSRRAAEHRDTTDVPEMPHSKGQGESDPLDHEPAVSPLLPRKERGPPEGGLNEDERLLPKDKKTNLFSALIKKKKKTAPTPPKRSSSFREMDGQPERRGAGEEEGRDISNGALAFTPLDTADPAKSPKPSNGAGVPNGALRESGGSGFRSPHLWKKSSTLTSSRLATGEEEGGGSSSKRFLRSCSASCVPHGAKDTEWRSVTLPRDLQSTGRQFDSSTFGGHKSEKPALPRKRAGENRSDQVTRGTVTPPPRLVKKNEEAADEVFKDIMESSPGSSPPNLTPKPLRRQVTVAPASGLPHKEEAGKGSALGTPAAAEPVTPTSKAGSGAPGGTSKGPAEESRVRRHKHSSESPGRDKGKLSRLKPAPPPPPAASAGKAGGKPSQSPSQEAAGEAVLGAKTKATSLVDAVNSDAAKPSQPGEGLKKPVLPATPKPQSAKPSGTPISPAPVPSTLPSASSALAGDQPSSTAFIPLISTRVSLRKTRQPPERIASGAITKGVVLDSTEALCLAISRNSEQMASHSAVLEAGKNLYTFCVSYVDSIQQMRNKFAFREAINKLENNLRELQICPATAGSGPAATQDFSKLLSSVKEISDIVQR
Tyrosine-protein kinase ABL1 (Homo sapiens) + Ras and Rab interactor 1 (Homo sapiens), sequence (Q13671 whole entry, looked up): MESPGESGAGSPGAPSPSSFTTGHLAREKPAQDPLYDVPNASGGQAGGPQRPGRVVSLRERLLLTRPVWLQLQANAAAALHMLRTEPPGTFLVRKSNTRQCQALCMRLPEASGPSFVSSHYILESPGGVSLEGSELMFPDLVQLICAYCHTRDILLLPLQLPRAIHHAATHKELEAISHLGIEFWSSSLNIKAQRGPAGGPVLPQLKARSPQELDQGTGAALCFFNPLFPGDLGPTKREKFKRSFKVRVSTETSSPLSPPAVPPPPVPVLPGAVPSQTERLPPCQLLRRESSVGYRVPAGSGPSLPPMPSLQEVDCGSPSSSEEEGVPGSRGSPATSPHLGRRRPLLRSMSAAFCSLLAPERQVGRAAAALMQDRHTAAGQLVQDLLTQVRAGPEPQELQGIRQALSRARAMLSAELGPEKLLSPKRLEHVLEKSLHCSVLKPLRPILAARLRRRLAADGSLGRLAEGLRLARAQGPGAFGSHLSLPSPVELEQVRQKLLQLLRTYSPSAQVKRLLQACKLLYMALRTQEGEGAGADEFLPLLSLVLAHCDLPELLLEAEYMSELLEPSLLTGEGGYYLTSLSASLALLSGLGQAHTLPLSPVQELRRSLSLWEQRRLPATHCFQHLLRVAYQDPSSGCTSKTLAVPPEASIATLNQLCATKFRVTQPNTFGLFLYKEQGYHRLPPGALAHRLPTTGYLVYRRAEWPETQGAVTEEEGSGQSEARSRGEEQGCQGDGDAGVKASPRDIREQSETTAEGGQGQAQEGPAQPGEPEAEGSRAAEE

Take `CN(C(=O)c1ccc(NC(=O)Cc2ccc(NC(=O)C3CCN(C(=O)c4cccc(F)c4)CC3)cc2)cc1)C1CC1`: the IC50 was 1350 nM.
Consider `CN(C(=O)c1ccc(NC(=O)Cc2ccc(NC(=O)C3CCN(C(=O)c4ccc(F)cc4)CC3)cc2)cc1)C1CC1`, for which the concentration for half-maximal inhibition (IC50) is 1060 nM.
As for `CN(C(=O)c1ccc(NC(=O)Cc2ccc(NC(=O)C3CCN(C(=O)c4ccccc4)CC3)cc2)cc1)C1CC1`, the concentration for half-maximal inhibition (IC50) is 620 nM.
Then `COc1ccc(C(=O)N2CCC(C(=O)Nc3ccc(CC(=O)Nc4ccc(C(=O)N(C)C5CC5)cc4)cc3)CC2)cc1`, with 3670 nM.

As a reminder, the IC50 is the concentration that gives 50% inhibition.
